How the values were obtained:
[1] = biological target: T1, O-acetylserine sulfhydrylase (Mycobacterium tuberculosis, UniProt P9WP55); experiment: Inhibition of Mycobacterium tuberculosis CysK1
[2] = biological target: O-acetylserine sulfhydrylase (Mycobacterium tuberculosis) (UniProt P9WP55)
[3] = Lipophilicity, log P of the compound; format: physicochemical; conditions: octanol/water
[4] = biological target: T1, O-acetylserine sulfhydrylase
Description: Inhibition of Mycobacterium tuberculosis N-terminal His-6-tagged recombinant CysK1 expressed in Escherichia coli BL21 (DE3) after 20 mins by spectrophotometric analysis

[5] = biological target: O-acetylserine sulfhydrylase (Mycobacterium tuberculosis) (UniProt P9WP55); remark: listed apart in the source
[6] = biological target: O-acetylserine sulfhydrylase (Mycobacterium tuberculosis) (UniProt P9WP55); conditions: at 500 nM
Description: Inhibition of Mycobacterium tuberculosis N-terminal His-6-tagged recombinant CysK1 expressed in Escherichia coli BL21 (DE3) at 500 nM after 20 mins by spectrophotometric analysis

Row | SMILES | IC50 [1] [nM] | Ratio IC50 [2] | logP [3] | IC50 [4] [nM] | Ratio IC50 [5] | inhibition [6] [%]
1 | CC[C@H](C)[C@H](NC(=O)[C@H](CO)NC(=O)[C@H](Cc1ccccc1)NC(=O)[C@@H](N)CC(=O)O)C(=O)O | 2900 |  |  |  |  | 
2 | CN1C(=O)/C(=C/c2ccc(F)cc2)S/C1=N\c1cccc(C(=O)O)c1 |  | 150 | 2.7 | 19 | 5 | 89.5
3 | CN1C(=O)/C(=C/c2ccccc2OCC(=O)O)S/C1=N\c1cccc(C(=O)O)c1 | 103 |  |  |  |  | 
4 | COc1ccccc1/C=C1\S/C(=N\c2cccc(C(=O)O)c2)N(C)C1=O |  |  |  | 160 |  | 96.9
5 | CCN1C(=O)/C(=C/c2ccc(O)cc2)S/C1=N\c1cccc(C(=O)O)c1 |  |  |  | 101 |  | 90.2
6 | CN1C(=O)/C(=C/c2ccc(N(C)C)cc2)S/C1=N\c1cccc(C(=O)O)c1 |  |  |  | 37 |  | 93.4
7 | CCN1C(=O)/C(=C/c2ccc(OC)c(OC)c2)S/C1=N\c1cccc(C(=O)O)c1 |  |  |  | 56 |  | 90.9
8 | COc1cc(/C=C2\S/C(=N\c3cccc(C(=O)O)c3)N(C)C2=O)ccc1O |  |  |  | 60 |  | 87.5

— ChEMBL document CHEMBL2417551, “Structure-guided design of novel thiazolidine inhibitors of O-acetyl serine sulfhydrylase from Mycobacterium tuberculosis” (J Med Chem, 2013)
